Experimental data reported in patent US20230406825A1, “COMPOUNDS, COMPOSITIONS THEREOF, AND METHODS FOR TREATING ER+ BREAST CANCER” (The Board of Regents of The University of Texas System, priority 2020, published 2023).
Entries after “also recorded” stand apart in the source; their conditions may differ.

Legend:
[1] = system: ER− breast cancer cell lines (triple negative breast cancer cell line); assay: Cell Titer-Glo dose dependent viability assay, ER- breast cancer cell lines; format: cell-based
Method: (§1) To measure the effects of TC-E 5008 on cell viability, breast cancer cells were seeded in 96-well plates (4×10^3 cells/well) in RPMI medium containing 10% fetal bovine serum. After an overnight incubation, cells were treated with varying concentrations of TC-E 5008 or other mutant IDH1 inhibitors for 72 hours. Viability was measured using Cell Titer-Glo Luminescent Cell Viability Assay (Promega) in 96-well, flat, clear-bottom, opaque-wall micro plates according to manufacturer's protocol. IC50 was less than […] in ER+ breast cancer cell lines and greater than […] in ER− breast cancer cell lines, as shown in the Figures.
(§2) A compound having a structure in accordance with Formula II (sometimes referred to herein as “TC-E 5008”) was selected for validation with an integrated confidence score of 1362.6. Three commonly used ER-positive breast cancer cell lines MCF-7, ZR-75 and T-47D were used for in vitro validation.

[2] = system: ER+ breast cancer cell lines (MCF-7, ZR-75 and T-47D); assay: Cell Titer-Glo dose dependent viability assay, ER+ breast cancer cell lines; format: cell-based
Method: as §1, §2

[3] = system: ER-positive breast tumors samples; assay: Patient-derived explant (PDE) ex vivo culture of primary breast tumors, Ki-67 staining; format: cell-based, human
Method: Excised tissue samples were processed and cultured ex vivo. De-identified tumors were obtained from the University of Texas Southwest Tissue Repository after institutional review board approval. Briefly, tumor samples were incubated on gelatin sponges for 24 hours in culture medium containing 10% fetal bovine serum (hereafter “FBS”), followed by treatment with either vehicle, 10 μM TC-E 5008 for 72 hours. Representative tissues were fixed in 10% formalin at 4° C. overnight and subsequently processed into paraffin blocks. The sections were then processed for immunohistochemical analysis.
In order to further validate TC-E 5008, an ex vivo culture model of primary breast tumors was used—which allows for the validation of drugs on breast tumors in their native tissue architecture. Specifically, surgically resected breast tissues were sliced into small pieces and grown ex vivo for short term on a gelatin sponge in the absence or presence of desired compound (see FIG. 4). In order to test TC-E 5008 in a variety of ER-positive tumors, estrogen receptor positivity was the only inclusion criteria used for the breast tumor samples.

[4] = ER-positive tumor explants, 10 μM, 72 hours
[5] = ER-positive tumor explants, 10 μM, 72 hours, versus untreated controls

Compound: Cc1cc(Cc2ccccc2)n(O)c(=O)c1 [TC-E 5008]
- IC50 ([1]; ER− breast cancer cell lines, 72 hours, Cell Titer-Glo): > 10 µM
- activity on proliferation ([1]; triple negative breast cancer cell line, FIG. 2): showed less activity
- IC50 ([2]; ER+ breast cancer cell lines, 72 hours, Cell Titer-Glo): < 2 µM
- anti-proliferative activity / proliferation ([2]; ER-positive lines MCF-7, ZR-75 and T-47D, FIG. 1, 8, 9): anti-proliferative activity; also recorded: blocked proliferation of all three ER-positive breast cancer cell lines
- patients showing a reduction in Ki-67 staining (Partial responders) [3, 4]: 3/10
- patients showing a significant reduction (Complete responders) [3, 4]: 4/10
- patients with decreased proliferation (Ki-67 staining) [3, 4]: 7/10
- reduction in Ki-67 staining, Complete responders [3, 5]: 40-95%
- reduction in Ki-67 staining, Partial responders [3, 5]: 0-25%
- tumor tissues showing an increase in proliferation (Non-responders) ([3]; compared to untreated controls, FIG. 7): Three
- response rate ([3]; limited cohort of 10 ER-positive tumors): 40%
- proliferative indices ([3]; primary tumor explants cultured ex vivo, 10 μM, 72 hour): significant decrease in proliferative indices
- morphological changes in the patient tissues ([3]; treated tissues compared to controls): did not observe morphological changes
